Common to all, as to assay type: biochemical
The target of one experiment is T1, PIP4K2B (Homo sapiens, UniProt P78356).
T1 construct: made in house; host or cells: E. coli
T1 sequence (P78356 1-416): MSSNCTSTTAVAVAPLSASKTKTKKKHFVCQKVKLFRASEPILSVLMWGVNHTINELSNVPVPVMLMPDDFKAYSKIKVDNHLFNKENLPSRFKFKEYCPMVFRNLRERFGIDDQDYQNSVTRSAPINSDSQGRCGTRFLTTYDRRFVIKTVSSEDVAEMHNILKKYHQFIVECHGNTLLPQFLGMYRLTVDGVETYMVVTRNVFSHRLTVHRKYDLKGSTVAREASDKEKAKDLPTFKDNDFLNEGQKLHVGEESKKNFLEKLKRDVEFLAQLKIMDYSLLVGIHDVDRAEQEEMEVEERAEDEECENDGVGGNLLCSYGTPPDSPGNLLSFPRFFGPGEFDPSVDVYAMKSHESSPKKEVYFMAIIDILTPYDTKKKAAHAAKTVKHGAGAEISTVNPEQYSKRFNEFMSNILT
Briefly: Trans-FI P kinase assay PIP4K2B (PIP4KtypeIIB inhibition assay). The note with it: compounds listed under IC50 bin headings; 100 uM GTP; read-out: Trans-FI P kinase assays: PIP4K2B IC50. Summed up: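 Transcreener FI fluorescence read-out of GDP formed by E. coli-expressed GST-PIP4K2B (5 nM) using 100 uM GTP and 80 uM PI5P with DOPE carrier lipid, pH 7.3, 2 h reaction. Compounds (up to 4.8 uM) were preincubated with enzyme 1 h at 27 C; IC50 fitted from residual activity relative to no-inhibitor control.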

In experiment [1] the target is T2, PIP4K 2A (Homo sapiens, UniProt P48426).
T2 sequence (P48426 1-406): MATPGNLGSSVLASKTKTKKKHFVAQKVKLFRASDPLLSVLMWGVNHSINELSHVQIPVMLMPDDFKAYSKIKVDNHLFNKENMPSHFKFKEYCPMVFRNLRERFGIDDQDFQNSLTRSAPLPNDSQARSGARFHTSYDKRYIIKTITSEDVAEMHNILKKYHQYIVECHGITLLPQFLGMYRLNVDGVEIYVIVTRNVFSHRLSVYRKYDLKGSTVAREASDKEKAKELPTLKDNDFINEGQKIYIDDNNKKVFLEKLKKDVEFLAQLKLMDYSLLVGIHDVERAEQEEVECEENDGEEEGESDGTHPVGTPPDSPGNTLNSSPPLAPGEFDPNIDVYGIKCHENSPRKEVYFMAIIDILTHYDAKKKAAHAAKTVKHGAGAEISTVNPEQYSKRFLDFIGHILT
Nature of the experiment: Kinase Assay PIP4K2 A (PIP4KtypeIIA inhibition assay). Also noted: made in house; host or cells: E. coli. The following applies: compounds listed under IC50 bin headings. Summed up: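 GST-tagged enzyme from E. coli at 0.5 nM final was preincubated with compound for 1 h at 27 C, then reacted with 10 uM ATP, 80 uM PI5P and DOPE carrier in 50 mM HEPES pH 7.3, 5% DMSO. After 1 h, ADP was measured by ADP-Glo luminescence against a calibration curve. IC50 was fitted from % residual activity.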

Experiment [2] deals with T2, PIP4K 2A. Briefly: ADP-glo kinase assay PIP4K 2A. Also noted: 4 nM PIP4K2A (full length protein, SignalChem); purchased SignalChem. The following applies: compounds listed under IC50 bin headings. Summed up:
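Inhibition was calculated versus DMSO controls from ADP-Glo luminescence and fitted to IC50 over a 10-point, threefold series. Compound was first pre-incubated 15 min at room temperature with PIP4K2A (full-length; 4 nM in the enzyme/substrate mix) and PI(5)P diC8 (100 μM in that mix). The reaction then ran for 1 h after adding 60 μM ATP solution, in MOPS pH 7.2/MgCl2/Tween buffer.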
Background: ADP-Glo turns the ADP formed in a reaction into a luminescent signal.

A word on the pIC50: it is the IC50 on a negative log10 scale, so that one unit is a factor of ten.

pIC50: −log10 of the molar value.

With `COc1ncc(Nc2cc3c(cn2)-c2ccc(N4CCCC4=O)cc2OC3C)cc1NS(C)(=O)=O` (stereo not drawn) [Example 88, N-(2-methoxy-5-((5-methyl-8-(2-oxopyrrolidin-1-yl)-5H-chromeno[4,3-c]pyridin-3-yl)amino)pyridin-3-yl)methanesulfonamide], the pIC50 at PIP4K2B is 7.00 to 8.00; against PIP4K 2A [1] it was 8.00 to 9.00; against PIP4K 2A [2] it was 8.00 to 9.00.

As to `COc1ncc(Nc2cc3c(cn2)-c2ccc(N4CCCC4=O)cc2OC3C)cc1N(C)C(C)=O` (stereo not drawn) [Example 89, N-(2-methoxy-5-((5-methyl-8-(2-oxopyrrolidin-1-yl)-5H-chromeno[4,3-c]pyridin-3-yl)amino)pyridin-3-yl)-N-methylacetamide], the negative logarithm of the IC50 (pIC50) at PIP4K2B was under 6.00; against PIP4K 2A [1] it was 6.00 to 7.00; against PIP4K 2A [2], 6.00 to 7.00.

For the compound `COc1ncc(Nc2cc3c(cn2)-c2ccc(N4CCCC4=O)cc2OC3C)cc1N(C)S(C)(=O)=O` (stereo not drawn) [Example 90, N-(2-methoxy-5-((5-methyl-8-(2-oxopyrrolidin-1-yl)-5H-chromeno[4,3-c]pyridin-3-yl)amino)pyridin-3-yl)-N-methylmethanesulfonamide], the figures for the pIC50 at PIP4K2B, against PIP4K 2A [1] and at PIP4K 2A [2] were 6.00 to 7.00, 8.00 to 9.00 and 7.00 to 8.00, respectively.

Consider `CC1Oc2cc(N3CCCC3=O)ccc2-c2cnc(Nc3cncc(S(C)(=O)=O)c3)cc21` (stereo not drawn) [Example 91, 1-(5-methyl-3-((5-(methylsulfonyl)pyridin-3-yl)amino)-5H-chromeno[4,3-c]pyridin-8-yl)pyrrolidin-2-one], for which the pIC50 on PIP4K2B was under 6.00; on PIP4K 2A [1] it was 7.00 to 8.00; on PIP4K 2A [2] it was 7.00 to 8.00.

Regarding `CC1Oc2cc(N3CCCC3=O)ccc2-c2cnc(Nc3cnc4c(c3)NC(=O)CO4)cc21` (stereo not drawn) [Example 93, 7-((5-methyl-8-(2-oxopyrrolidin-1-yl)-5H-chromeno[4,3-c]pyridin-3-yl)amino)-1H-pyrido[2,3-b][1,4]oxazin-2(3H)-one], the pIC50 at PIP4K2B was 6.00 to 7.00; on PIP4K 2A [1] it was 8.00 to 9.00; against PIP4K 2A [2], 7.00 to 8.00.

With `CC1Oc2cc(N3CCCC3=O)ccc2-c2cnc(Nc3cnc4c(c3)NCCO4)cc21` (stereo not drawn) [Example 94, 1-(3-((2,3-dihydro-1H-pyrido[2,3-b][1,4]oxazin-7-yl)amino)-5-methyl-5H-chromeno[4,3-c]pyridin-8-yl)pyrrolidin-2-one], the figures for the pIC50 on PIP4K2B, at PIP4K 2A [1] and on PIP4K 2A [2] were 7.00 to 8.00, 8.00 to 9.00 and 8.00 to 9.00, respectively.

As for `CC1Oc2cc(N3CCCC3=O)ccc2-c2cnc(Nc3cncc(N4CCOCC4=O)c3)cc21` (stereo not drawn) [Example 95, 4-(5-((5-methyl-8-(2-oxopyrrolidin-1-yl)-5H-chromeno[4,3-c]pyridin-3-yl)amino)pyridin-3-yl)morpholin-3-one], the results for the pIC50 at PIP4K2B, against PIP4K 2A [1] and on PIP4K 2A [2] were 6.00 to 7.00, 8.00 to 9.00 and 7.00 to 8.00, respectively.

As for `CC1Oc2cc(N3CCCC3=O)ccc2-c2cnc(Nc3cncc(N4CCOCC4)c3)cc21` (stereo not drawn) [Example 96, 1-(5-methyl-3-((5-morpholinopyridin-3-yl)amino)-5H-chromeno[4,3-c]pyridin-8-yl)pyrrolidin-2-one], the negative logarithm of the IC50 (pIC50) on PIP4K2B was 6.00 to 7.00; at PIP4K 2A [1] it was 8.00 to 9.00; against PIP4K 2A [2], 8.00 to 9.00.

Take `Cc1cncc(Nc2cc3c(cn2)-c2ccc(N4CCCC4=O)cc2OC3C)c1` (stereo not drawn) [Example 97, 1-(5-methyl-3-((5-methylpyridin-3-yl)amino)-5H-chromeno[4,3-c]pyridin-8-yl)pyrrolidin-2-one]: the figures for the pIC50 at PIP4K2B, on PIP4K 2A [1] and against PIP4K 2A [2] were 6.00 to 7.00, at least 9.00 and 8.00 to 9.00, respectively.

Consider `CC(=O)Nc1cncc(Nc2cc3c(cn2)-c2ccc(N4CCCC4=O)cc2OC3C)c1` (stereo not drawn) [Example 100, N-(5-((5-methyl-8-(2-oxopyrrolidin-1-yl)-5H-chromeno[4,3-c]pyridin-3-yl)amino)pyridin-3-yl)acetamide], for which the pIC50 on PIP4K2B is 7.00 to 8.00; on PIP4K 2A [1] it was at least 9.00; at PIP4K 2A [2], 7.00 to 8.00.

In the case of `CC1Oc2cc(N3CCCC3=O)ccc2-c2cnc(Nc3cncc(NC(=O)NCc4ccccc4)c3)cc21` (stereo not drawn) [Example 103, 1-benzyl-3-(5-((5-methyl-8-(2-oxopyrrolidin-1-yl)-5H-chromeno[4,3-c]pyridin-3-yl)amino)pyridin-3-yl)urea], the values for the negative logarithm of the IC50 (pIC50) at PIP4K2B, on PIP4K 2A [1] and at PIP4K 2A [2] were 7.00 to 8.00, at least 9.00 and 8.00 to 9.00, respectively.

As to `CC1Oc2cc(N3CCCC3=O)ccc2-c2cnc(Nc3cncc(NC(=O)c4cccc(N)c4)c3)cc21` (stereo not drawn) [Example 106, 3-amino-N-(5-((5-methyl-8-(2-oxopyrrolidin-1-yl)-5H-chromeno[4,3-c]pyridin-3-yl)amino)pyridin-3-yl)benzamide], the pIC50 is 7.00 to 8.00 on PIP4K2B, at least 9.00 at PIP4K 2A [1] and 8.00 to 9.00 against PIP4K 2A [2].

As to `CC1Oc2cc(N3CCCC3=O)ccc2-c2cnc(Nc3ccnnc3)cc21` (stereo not drawn) [Example 127, 1-(5-methyl-3-(pyridazin-4-ylamino)-5H-chromeno[4,3-c]pyridin-8-yl)pyrrolidin-2-one], the negative-log IC50 (pIC50) on PIP4K2B is under 6.00; against PIP4K 2A [1], 7.00 to 8.00; against PIP4K 2A [2], 6.00 to 7.00.

As for `CC1Oc2cc(N3CCCC3=O)ccc2-c2cnc(Nc3cccnn3)cc21` (stereo not drawn) [Example 128, 1-(5-methyl-3-(pyridazin-3-ylamino)-5H-chromeno[4,3-c]pyridin-8-yl)pyrrolidin-2-one], the negative-log IC50 (pIC50) at PIP4K2B was 6.00 to 7.00; at PIP4K 2A [1] it was 8.00 to 9.00; on PIP4K 2A [2], 7.00 to 8.00.

As to `CC1Oc2cc(N3CCCC3=O)ccc2-c2cnc(Nc3cncc(Nc4ccccn4)c3)cc21` (stereo not drawn) [Example 130, 1-(5-methyl-3-((5-(pyridin-2-ylamino)pyridin-3-yl)amino)-5H-chromeno[4,3-c]pyridin-8-yl)pyrrolidin-2-one], the negative-log IC50 (pIC50) is 7.00 to 8.00 at PIP4K2B, 8.00 to 9.00 on PIP4K 2A [1] and 8.00 to 9.00 against PIP4K 2A [2].

Regarding `CC1Oc2cc(N3CCCC3=O)ccc2-c2cnc(Nc3cncc(Nc4cccnn4)c3)cc21` (stereo not drawn) [Example 131, 1-(5-methyl-3-((5-(pyridazin-3-ylamino)pyridin-3-yl)amino)-5H-chromeno[4,3-c]pyridin-8-yl)pyrrolidin-2-one], the negative-log IC50 (pIC50) on PIP4K2B was 7.00 to 8.00; against PIP4K 2A [1] it was at least 9.00; against PIP4K 2A [2], 8.00 to 9.00.

For `CC1(C)Oc2cc(N3CCCC3=O)c(F)cc2-c2cnc(Nc3cnc4c(c3)N3C(=O)CC[C@H]3CO4)cc21` [Example 148, (S)-2-((9-fluoro-5,5-dimethyl-8-(2-oxopyrrolidin-1-yl)-5H-chromeno[4,3-c]pyridin-3-yl)amino)-6,6a,7,8-tetrahydro-9H-pyrido[2,3-b]pyrrolo[1,2-d][1,4]oxazin-9-one], the results for the negative logarithm of the IC50 (pIC50) at PIP4K2B, against PIP4K 2A [1] and at PIP4K 2A [2] were 8.00 to 9.00, at least 9.00 and at least 9.00, respectively.

Consider `CC1(C)Oc2cc(N3CCCC3=O)c(F)cc2-c2cnc(Nc3cncc(N4CCNC4=O)c3)cc21` [Example 149, 1-(5-((9-fluoro-5,5-dimethyl-8-(2-oxopyrrolidin-1-yl)-5H-chromeno[4,3-c]pyridin-3-yl)amino)pyridin-3-yl)imidazolidin-2-one], for which the figures for the pIC50 at PIP4K2B, on PIP4K 2A [1] and against PIP4K 2A [2] were 7.00 to 8.00, at least 9.00 and 8.00 to 9.00, respectively.

`CC1(C)Oc2cc(N3CCCC3=O)ccc2-c2cnc(Nc3cnc4c(c3)OCCO4)cc21` [Example 164, 1-(3-((2,3-dihydro-[1,4]dioxino[2,3-b]pyridin-7-yl)amino)-5,5-dimethyl-5H-chromeno[4,3-c]pyridin-8-yl)pyrrolidin-2-one]: the pIC50 on PIP4K2B is 7.00 to 8.00; against PIP4K 2A [1] it was at least 9.00; against PIP4K 2A [2], 8.00 to 9.00.

For the compound `CC1(C)Oc2cc(N3CCCC3=O)c(F)cc2-c2cnc(Nc3cnc4c(c3)OCCO4)cc21` [Example 167, 1-(3-((2,3-dihydro-[1,4]dioxino[2,3-b]pyridin-7-yl)amino)-9-fluoro-5,5-dimethyl-5H-chromeno[4,3-c]pyridin-8-yl)pyrrolidin-2-one], the pIC50 is 7.00 to 8.00 at PIP4K2B, at least 9.00 against PIP4K 2A [1] and at least 9.00 against PIP4K 2A [2].

Values taken from US11584763B2, “Chromenopyridine derivatives as phosphatidylinositol phosphate kinase inhibitors” (HIBERCELL, INC., priority 2017, dated 2023).
